Counter-ions that a name gives are not always drawn.
Key:
[1] = Elimination of the molecules: cumulative urinary and faecal excretion 0-72 hours; assay type: in vivo, mouse; details: for Faecal elimination 0-72 hours (Faeces) / Urinary and faecal elimination 0-72 hours (Total) / Urinary elimination 0-72 hours (Urine): cumulative excretion 0-72 hours; for Faecal elimination 0-72 hours (Faeces) / Urinary elimination 0-72 hours (Urine): mice in metabolic cages; for Urinary and faecal elimination 0-72 hours (Total): urine + faeces
tumour = experiment: Dosimetry with regard to the tumour (MIRD programme, extrapolated to ^131I); details: for Effective period: extrapolated to 131I labelling; for Biological period: from biodistribution data
[2] = system: grafted B16 F0 murine melanoma tumour; experiment: Biodistribution of the ^125I-labelled molecules in the melanoma-bearing mouse (autoradiography of whole-body sections); details: ^125I-labelled compound

## CCN(CC)CCNC(=O)c1cc2cc(I)ccc2[nH]1 [compound 10, N-(2-diethylaminoethyl)-5-iodoindole-2-carboxamide hydrochloride]
[1]
  Faecal elimination 0-72 hours (Faeces): 61.7%
  Urinary and faecal elimination 0-72 hours (Total): 83.2%
  Urinary elimination 0-72 hours (Urine): 21.5%
[1]; urinary versus faecal, 0-72 hours
  elimination route (in words): faecal route predominates
tumour
  Effective period: 18.2 h
  Biological period: 20.1 hours
[2]; 1 H after i.v. administration
  Concentration of radioactivity, B 16 (tumour), Mean: 8.31 % ID/g
  Concentration of radioactivity, Ic (intestinal contents), Mean: 76.74 % ID/g
  Concentration of radioactivity, Sc (stomach contents), Mean: 35.41 % ID/g
  Concentration of radioactivity, blood (measured in the heart cavity), Mean: 1.60 % ID/g
  Concentration of radioactivity, brain, Mean: 4.84 % ID/g
  Concentration of radioactivity, kidney, Mean: 10.87 % ID/g
  Concentration of radioactivity, liver, Mean: 11.86 % ID/g
  Concentration of radioactivity, lungs, Mean: 14.41 % ID/g
  Concentration of radioactivity, muscle (skeletal muscle), Mean: 1.50 % ID/g
  Concentration of radioactivity, pancreas, Mean: 7.15 % ID/g
  Concentration of radioactivity, spleen, Mean: 8.09 % ID/g
  Concentration of radioactivity, uvea (pigmented tissues of the eye), Mean: 11.70 % ID/g
[2]; 3 H after i.v. administration
  Concentration of radioactivity, B 16 (tumour), Mean: 10.22 % ID/g
  Concentration of radioactivity, Ic (intestinal contents), Mean: 112.56 % ID/g
  Concentration of radioactivity, Sc (stomach contents), Mean: 18.52 % ID/g
  Concentration of radioactivity, blood (measured in the heart cavity), Mean: 0.79 % ID/g
  Concentration of radioactivity, brain, Mean: 1.73 % ID/g
  Concentration of radioactivity, kidney, Mean: 4.19 % ID/g
  Concentration of radioactivity, liver, Mean: 5.21 % ID/g
  Concentration of radioactivity, lungs, Mean: 3.46 % ID/g
  Concentration of radioactivity, muscle (skeletal muscle), Mean: 0.49 % ID/g
  Concentration of radioactivity, pancreas, Mean: 2.48 % ID/g
  Concentration of radioactivity, spleen, Mean: 2.79 % ID/g
  Concentration of radioactivity, uvea (pigmented tissues of the eye), Mean: 12.78 % ID/g
[2]; 6 H after i.v. administration
  Concentration of radioactivity, B 16 (tumour), Mean: 9.84 % ID/g
  Concentration of radioactivity, Ic (intestinal contents), Mean: 79.85 % ID/g
  Concentration of radioactivity, Sc (stomach contents), Mean: 21.84 % ID/g
  Concentration of radioactivity, blood (measured in the heart cavity), Mean: 0.67 % ID/g
  Concentration of radioactivity, brain, Mean: 0.74 % ID/g
  Concentration of radioactivity, kidney, Mean: 2.50 % ID/g
  Concentration of radioactivity, liver, Mean: 3.63 % ID/g
  Concentration of radioactivity, lungs, Mean: 1.70 % ID/g
  Concentration of radioactivity, muscle (skeletal muscle), Mean: 0.31 % ID/g
  Concentration of radioactivity, pancreas, Mean: 1.46 % ID/g
  Concentration of radioactivity, spleen, Mean: 1.68 % ID/g
  Concentration of radioactivity, uvea (pigmented tissues of the eye), Mean: 13.20 % ID/g
[2]; 24 H after i.v. administration
  Concentration of radioactivity, B 16 (tumour), Mean: 8.16 % ID/g
  Concentration of radioactivity, Ic (intestinal contents), Mean: 3.31 % ID/g
  Concentration of radioactivity, Sc (stomach contents), Mean: 2.10 % ID/g
  Concentration of radioactivity, blood (measured in the heart cavity), Mean: 0.10 % ID/g
  Concentration of radioactivity, brain, Mean: 0.00 % ID/g
  Concentration of radioactivity, kidney, Mean: 0.83 % ID/g
  Concentration of radioactivity, liver, Mean: 1.61 % ID/g
  Concentration of radioactivity, lungs, Mean: 0.37 % ID/g
  Concentration of radioactivity, muscle (skeletal muscle), Mean: 0.19 % ID/g
  Concentration of radioactivity, pancreas, Mean: 0.09 % ID/g
  Concentration of radioactivity, spleen, Mean: 1.22 % ID/g
  Concentration of radioactivity, uvea (pigmented tissues of the eye), Mean: 8.81 % ID/g
[2]; 72 H after i.v. administration
  Concentration of radioactivity, B 16 (tumour), Mean: 0.84 % ID/g
  Concentration of radioactivity, Sc (stomach contents), Mean: 0.04 % ID/g
  Concentration of radioactivity, kidney, Mean: 0.71 % ID/g
  Concentration of radioactivity, liver, Mean: 0.61 % ID/g
  Concentration of radioactivity, uvea (pigmented tissues of the eye), Mean: 5.86 % ID/g

## CCN(CC)CCNC(=O)c1ccc2cc(I)ccc2c1 [compound 3, N-(2-diethylaminoethyl)-6-iodo-2-naphthamide hydrochloride]
[1]
  Faecal elimination 0-72 hours (Faeces): 26.7%
  Urinary and faecal elimination 0-72 hours (Total): 70.6%
  Urinary elimination 0-72 hours (Urine): 43.7%
tumour
  Effective period: 21.4 h
  Biological period: 24.0 hours
[2]; 1 H after i.v. administration
  Concentration of radioactivity, B 16 (tumour), Mean: 12.99 % ID/g
  Concentration of radioactivity, Ic (intestinal contents), Mean: 7.82 % ID/g
  Concentration of radioactivity, Sc (stomach contents), Mean: 27.82 % ID/g
  Concentration of radioactivity, blood (measured in the heart cavity), Mean: 2.97 % ID/g
  Concentration of radioactivity, brain, Mean: 4.37 % ID/g
  Concentration of radioactivity, kidney, Mean: 13.30 % ID/g
  Concentration of radioactivity, liver, Mean: 9.46 % ID/g
  Concentration of radioactivity, lungs, Mean: 11.82 % ID/g
  Concentration of radioactivity, muscle (skeletal muscle), Mean: 1.92 % ID/g
  Concentration of radioactivity, pancreas, Mean: 10.18 % ID/g
  Concentration of radioactivity, spleen, Mean: 9.70 % ID/g
  Concentration of radioactivity, uvea (pigmented tissues of the eye), Mean: 13.21 % ID/g
[2]; 3 H after i.v. administration
  Concentration of radioactivity, B 16 (tumour), Mean: 11.38 % ID/g
  Concentration of radioactivity, Ic (intestinal contents), Mean: 25.85 % ID/g
  Concentration of radioactivity, Sc (stomach contents), Mean: 24.69 % ID/g
  Concentration of radioactivity, blood (measured in the heart cavity), Mean: 1.77 % ID/g
  Concentration of radioactivity, brain, Mean: 0.78 % ID/g
  Concentration of radioactivity, kidney, Mean: 5.65 % ID/g
  Concentration of radioactivity, liver, Mean: 4.75 % ID/g
  Concentration of radioactivity, lungs, Mean: 4.43 % ID/g
  Concentration of radioactivity, muscle (skeletal muscle), Mean: 0.83 % ID/g
  Concentration of radioactivity, pancreas, Mean: 8.19 % ID/g
  Concentration of radioactivity, spleen, Mean: 2.59 % ID/g
  Concentration of radioactivity, uvea (pigmented tissues of the eye), Mean: 13.90 % ID/g
[2]; 6 H after i.v. administration
  Concentration of radioactivity, B 16 (tumour), Mean: 8.95 % ID/g
  Concentration of radioactivity, Ic (intestinal contents), Mean: 18.72 % ID/g
  Concentration of radioactivity, Sc (stomach contents), Mean: 10.79 % ID/g
  Concentration of radioactivity, blood (measured in the heart cavity), Mean: 1.74 % ID/g
  Concentration of radioactivity, brain, Mean: 0.25 % ID/g
  Concentration of radioactivity, kidney, Mean: 3.07 % ID/g
  Concentration of radioactivity, liver, Mean: 2.73 % ID/g
  Concentration of radioactivity, lungs, Mean: 2.12 % ID/g
  Concentration of radioactivity, muscle (skeletal muscle), Mean: 0.38 % ID/g
  Concentration of radioactivity, spleen, Mean: 8.05 % ID/g
  Concentration of radioactivity, uvea (pigmented tissues of the eye), Mean: 12.76 % ID/g
[2]; 24 H after i.v. administration
  Concentration of radioactivity, B 16 (tumour), Mean: 6.97 % ID/g
  Concentration of radioactivity, Ic (intestinal contents), Mean: 3.03 % ID/g
  Concentration of radioactivity, Sc (stomach contents), Mean: 3.10 % ID/g
  Concentration of radioactivity, uvea (pigmented tissues of the eye), Mean: 12.28 % ID/g
[2]; 72 H after i.v. administration
  Concentration of radioactivity, B 16 (tumour), Mean: 1.52 % ID/g
  Concentration of radioactivity, uvea (pigmented tissues of the eye), Mean: 7.84 % ID/g

— US20100061928A1, “LABELLED ANALOGUES OF HALOBENZAMIDES AS RADIOPHARMACEUTICALS” (Institut National De La Sante et De La Recherche Medicale …, priority 2006, published 2010)
